Assay results: patent US20230399312A1, “SUBSTITUTED PYRIMIDINES AND METHODS OF USE” (THERAVANCE BIOPHARMA R&D IP, LLC, priority 2020, published 2023)

Columns and labels:
[1] = molecular target: T1, recombinant human ALK5 (TGF-βR1) protein (Homo sapiens, UniProt P36897); experiment: Biochemical ALK5 (TGF-βR1) assay to measure pKi (LANCE Ultra ULight kinase assay); details: apparent pKi, converted from pIC50 by Cheng-Prusoff
T1 construct: purchased Life Technologies PR9075A
T1 sequence (P36897 34-503): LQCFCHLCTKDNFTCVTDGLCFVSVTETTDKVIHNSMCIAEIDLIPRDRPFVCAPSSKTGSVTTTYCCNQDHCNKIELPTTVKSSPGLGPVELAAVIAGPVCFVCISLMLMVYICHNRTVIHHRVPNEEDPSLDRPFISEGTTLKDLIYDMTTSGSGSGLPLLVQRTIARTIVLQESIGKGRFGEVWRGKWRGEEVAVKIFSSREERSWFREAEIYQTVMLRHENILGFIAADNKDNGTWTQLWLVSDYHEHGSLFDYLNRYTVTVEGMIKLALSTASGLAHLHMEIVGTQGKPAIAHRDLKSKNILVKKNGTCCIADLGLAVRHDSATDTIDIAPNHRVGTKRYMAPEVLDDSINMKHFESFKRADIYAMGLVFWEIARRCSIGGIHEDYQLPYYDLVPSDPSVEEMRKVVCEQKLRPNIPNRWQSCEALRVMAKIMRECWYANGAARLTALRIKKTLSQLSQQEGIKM
Procedure, shortened: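 Europium TR-FRET kinase assay: the enzyme is exposed to compound for 60 min at room temperature, and reaction with ATP runs 60 min at 37 °C. Percent inhibition relative to DMSO and SD-208 controls gives pIC50, which is converted to pKi.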

[2] = tested on: TGF-β-stimulated SMAD3 phosphorylation in BEAS-2B cells; experiment: Cellular ALK5 potency assay, inhibition of TGF-β stimulated pSMAD3 formation in BEAS-2B cells; assay type: cell-based; details: Homo sapiens, pSMAD3, TGF-β 10 ng/mL, read-out: BEAS2B pIC50 (converted)
Procedure, shortened: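 Human lung epithelial BEAS-2B cells were preincubated 1 h at 37 °C with compound in HBSS/HEPES/1% BSA, then stimulated 30 min with 10 ng/mL TGF-β. pSMAD3 in lysates was quantified by AlphaLISA relative to untreated stimulated cells; reported as pIC50.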

Ki [1] [nM]	SMILES	IC50 [2] [nM]
0.0398 to 0.316	Cc1cccc(-c2nccc(Nc3ccnc(Nc4ccc(C(=O)OCC5CNC5)s4)n3)n2)n1 [Compound 100, azetidin-3-ylmethyl 5-[[4-[[2-(6-methyl-2-pyridyl)pyrimidin-4-yl]amino]pyrimidin-2-yl]amino]thiophene-2-carboxylate]	25.1 to 158
0.0398 to 0.316	Cc1cccc(-c2nccc(Nc3ccnc(Nc4ccc(N5CCC(C(=O)OC6CCNC6)CC5)cc4)n3)n2)n1 (stereo not shown) [Compound 101, pyrrolidin-3-yl 1-[4-[[4-[[2-(6-methyl-2-pyridyl)pyrimidin-4-yl]amino]pyrimidin-2-yl]amino]phenyl]piperidine-4-carboxylate]	25.1 to 158
0.0398 to 0.316	Cc1cccc(-c2nccc(Nc3ccnc(Nc4ccc(N5CCN(CC6CCNC6)CC5)cc4)n3)n2)n1 (stereo not shown) [Compound 102, N4-[2-(6-methyl-2-pyridyl)pyrimidin-4-yl]-N2-[4-[4-(pyrrolidin-3-ylmethyl)piperazin-1-yl]phenyl]pyrimidine-2,4-diamine]	25.1 to 158
0.0398 to 0.316	Cc1cccc(-c2nccc(Nc3ccnc(Nc4ccc(CN5CCSCC5)cc4)n3)n2)n1 [Compound 104, N4-[2-(6-methyl-2-pyridyl)pyrimidin-4-yl]-N2-[4-(thiomorpholinomethyl)phenyl] pyrimidine-2,4-diamine]	25.1 to 158
0.0398 to 0.316	Cc1cccc(-c2nccc(Nc3ccnc(Nc4ccc(NS(=O)(=O)CC5CCCNC5)cc4)n3)n2)n1 (stereo not shown) [Compound 106, N-(4-((4-((2-(6-methylpyridin-2-yl)pyrimidin-4-yl)amino)pyrimidin-2-yl)amino)phenyl)-1-(piperidin-3-yl)methanesulfonamide]	25.1 to 158
0.398 to 3.16	Cc1cccc(-c2nccc(Nc3ccnc(Nc4ccc(S(=O)(=O)N5CCN(C(=O)NC(C)C)CC5)cc4)n3)n2)n1 [Compound 107, N-isopropyl-4-[4-[[4-[[2-(6-methyl-2-pyridyl)pyrimidin-4-yl]amino]pyrimidin-2-yl]amino]phenyl]sulfonyl-piperazine-1-carboxamide]	200 to 1260
0.0398 to 0.316	Cc1cccc(-c2nccc(Nc3ccnc(Nc4ccc(S(N)(=O)=O)cc4)n3)n2)n1 [Compound 108, 4-((4-((2-(6-methylpyridin-2-yl)pyrimidin-4-yl)amino)pyrimidin-2-yl)amino)benzenesulfonamide]	25.1 to 158
0.0398 to 0.316	Cc1cccc(-c2nccc(Nc3ccnc(Nc4ccc(CN5CCN(C(C)(C)C)CC5)cc4)n3)n2)n1 [Compound 109, N2-[4-[(4-tert-butylpiperazin-1-yl)methyl]phenyl]-N4-[2-(6-methyl-2-pyridyl)pyrimidin-4-yl]pyrimidine-2,4-diamine]	25.1 to 158
0.0398 to 0.316	Cc1cccc(-c2nccc(Nc3ccnc(Nc4ccc(NC(=O)N5CCN(C(C)C)CC5)cc4)n3)n2)n1 [Compound 110, 4-isopropyl-N-[4-[[4-[[2-(6-methyl-2-pyridyl)pyrimidin-4-yl]amino]pyrimidin-2-yl]amino]phenyl]piperazine-1-carboxamide]	25.1 to 158
0.0398 to 0.316	Cc1cccc(-c2nccc(Nc3ccnc(Nc4ccc(F)c(CN5CCNCC5)c4)n3)n2)n1 [Compound 111, N2-[4-fluoro-3-(piperazin-1-ylmethyl)phenyl]-N4-[2-(6-methyl-2-pyridyl)pyrimidin-4-yl]pyrimidine-2,4-diamine]	25.1 to 158
0.0398 to 0.316	Cc1cccc(-c2nccc(Nc3ccnc(Nc4ccc(CN5CCCC(C(=O)N6CCNCC6)C5)cc4)n3)n2)n1 (stereo not shown) [Compound 112, [1-[[4-[[4-[[2-(6-methyl-2-pyridyl)pyrimidin-4-yl]amino]pyrimidin-2-yl]amino]phenyl]methyl]-3-piperidyl]-piperazin-1-yl-methanone]	25.1 to 158
0.0398 to 0.316	CC[C@H](C)OC(=O)C1CN(c2ccc(Nc3nccc(Nc4ccnc(-c5cccc(C)n5)n4)n3)cc2)CCN1 (stereo partly drawn) [Compound 113, [(1S)-1-methylpropyl] 4-[4-[[4-[[2-(6-methyl-2-pyridyl)pyrimidin-4-yl]amino]pyrimidin-2-yl]amino]phenyl]piperazine-2-carboxylate]	25.1 to 158
0.398 to 3.16	Cc1cccc(-c2nccc(Nc3ccnc(Nc4ccc(C5CCNCC5)cn4)n3)n2)n1 [Compound 114, N4-[2-(6-methyl-2-pyridyl)pyrimidin-4-yl]-N2-[5-(4-piperidyl)-2-pyridyl]pyrimidine-2,4-diamine]	200 to 1260
0.0398 to 0.316	Cc1cccc(-c2nccc(Nc3ccnc(Nc4ccc(C(=O)N5CCNCC5)s4)n3)n2)n1 [Compound 115, [5-[[4-[[2-(6-methyl-2-pyridyl)pyrimidin-4-yl]amino]pyrimidin-2-yl]amino]-2-thienyl]-piperazin-1-yl-methanone]	25.1 to 158

The next lines start with the compound.

SMILES	Ki [1] [nM]	IC50 [2] [nM]
Cc1cccc(-c2nccc(Nc3ccnc(Nc4cccc(S(=O)(=O)N(C)C5CCNCC5)c4)n3)n2)n1 [Compound 87, N-methyl-3-[[4-[[2-(6-methyl-2-pyridyl)pyrimidin-4-yl]amino]pyrimidin-2-yl]amino]-N-(4-piperidyl)benzenesulfonamide]	3.98 to 31.6	200 to 1260
Cc1cccc(-c2nccc(Nc3ccnc(Nc4ccc(CN5CC(C(=O)OCC6CNC6)C5)cc4)n3)n2)n1 [Compound 88, azetidin-3-ylmethyl 1-(4-((4-((2-(6-methylpyridin-2-yl)pyrimidin-4-yl)amino)pyrimidin-2-yl)amino)benzyl)azetidine-3-carboxylate]	0.0398 to 0.316	25.1 to 158
Cc1cccc(-c2nccc(Nc3ccnc(Nc4csc(C(=O)NCC5CNC5)c4)n3)n2)n1 [Compound 89, N-(azetidin-3-ylmethyl)-4-[[4-[[2-(6-methyl-2-pyridyl)pyrimidin-4-yl]amino]pyrimidin-2-yl]amino]thiophene-2-carboxamide]	≤ 0.0316	≤ 20
CNC1CCN(c2ccc(Nc3nccc(Nc4ccnc(-c5ccccc5F)n4)n3)cc2)CC1 [Compound 90, N4-[2-(2-fluorophenyl)pyrimidin-4-yl]-N2-[4-[4-(methylamino)-1-piperidyl]phenyl]pyrimidine-2,4-diamine]	0.398 to 3.16	25.1 to 158
Cc1cccc(-c2nccc(Nc3ccnc(Nc4ccc(C(=O)NCC5CNC5)cc4)n3)n2)n1 [Compound 92, N-(azetidin-3-ylmethyl)-4-[[4-[[2-(6-methyl-2-pyridyl)pyrimidin-4-yl]amino]pyrimidin-2-yl]amino]benzamide]	0.0398 to 0.316	≤ 20
Cc1cccc(-c2nccc(Nc3ccnc(Nc4ccc(NS(=O)(=O)N5CCNCC5)cc4)n3)n2)n1 [Compound 93, N-[4-[[4-[[2-(6-methyl-2-pyridyl)pyrimidin-4-yl]amino]pyrimidin-2-yl]amino]phenyl]piperazine-1-sulfonamide]	0.0398 to 0.316	200 to 1260
Cc1cccc(-c2nccc(Nc3ccnc(Nc4csc(CN5CCNCC5)c4)n3)n2)n1 [Compound 94, N4-(2-(6-methylpyridin-2-yl)pyrimidin-4-yl)-N2-(5-(piperazin-1-ylmethyl)thiophen-3-yl)pyrimidine-2,4-diamine]	≤ 0.0316	≤ 20
Cc1cccc(-c2nccc(Nc3ccnc(Nc4ccc(N5CCNCC5)c(CC(=O)O)c4)n3)n2)n1 [Compound 95, 2-[5-[[4-[[2-(6-methyl-2-pyridyl)pyrimidin-4-yl]amino]pyrimidin-2-yl]amino]-2-piperazin-1-yl-phenyl]acetic acid]	0.0398 to 0.316	200 to 1260
Cc1cccc(-c2nccc(Nc3ccnc(Nc4csc(C(=O)OCC5CNC5)c4)n3)n2)n1 [Compound 96, azetidin-3-ylmethyl 4-((4-((2-(6-methylpyridin-2-yl)pyrimidin-4-yl)amino)pyrimidin-2-yl)amino)thiophene-2-carboxylate]	0.0398 to 0.316	25.1 to 158
Cc1cccc(-c2nccc(Nc3ccnc(Nc4ccc(CN5CC(C(=O)O[C@H]6CCN(C)C6)C5)cc4)n3)n2)n1 [Compound 97, [(3S)-1-methylpyrrolidin-3-yl] 1-[[4-[[4-[[2-(6-methyl-2-pyridyl)pyrimidin-4-yl]amino]pyrimidin-2-yl]amino]phenyl]methyl] azetidine-3-carboxylate]	0.0398 to 0.316	25.1 to 158
Cc1cccc(-c2nccc(Nc3ccnc(Nc4ccc(N5CC(N)C5)cc4)n3)n2)n1 [Compound 98, N2-[4-(3-aminoazetidin-1-yl)phenyl]-N4-[2-(6-methyl-2-pyridyl)pyrimidin-4-yl]pyrimidine-2,4-diamine]	0.0398 to 0.316	25.1 to 158
Cc1cccc(-c2nccc(Nc3ccnc(Nc4ccc(CN5CC(C)(CO)C5)cc4)n3)n2)n1 [Compound 99, [3-methyl-1-[[4-[[4-[[2-(6-methyl-2-pyridyl)pyrimidin-4-yl]amino]pyrimidin-2-yl]amino]phenyl]methyl]azetidin-3-yl]methanol]	≤ 0.0316	25.1 to 158
